The values that follow come from ChEMBL document CHEMBL1141974, “Inclusion complexes of N-sulfamoyloxazolidinones with beta-cyclodextrin” (Bioorg Med Chem Lett, 2005).

Structures are written as SMILES.

Data set [1] is described as follows: Relative hydrophobicity enhancement value obtained via beta-cyclodextrin complexation. It counts as ADME.
Data set [2] in a line: Partition coefficient (logP). In kind it is physicochemical. The settings on record: octanol/water.
The nature of data set [3]: Partition coefficient (logP) (beta-cyclodextrin complex). The settings on record: octanol/water. It counts as physicochemical.

For the compound `CN(c1ccccc1)S(=O)(=O)N1CCOC1=O`, in data set [1], the “delta Log P” value is on record as 0.78. Besides, the results for the logP in data set [2] and in data set [3] were 0.56 and -0.22, respectively.

On to `O=C1OCCN1S(=O)(=O)Nc1ccccc1`, for which the “delta Log P” value in data set [1] was 0.85. Besides, the logP in data set [2] was 0.65; in data set [3] it was -0.2.

As to `Cc1ccc(NS(=O)(=O)N2CCOC2=O)cc1`, the “delta Log P” value in data set [1] amounted to 1.01. Moreover, the results for the logP in data set [2] and in data set [3] were 1.12 and 0.1, respectively.

Consider `COc1ccc(NS(=O)(=O)N2CCOC2=O)cc1`, for which the “delta Log P” value in data set [1] is on record as 0.94. Also, the results for the logP in data set [2] and in data set [3] were 0.77 and -0.17, respectively.

As to `O=C1OCCN1S(=O)(=O)Nc1ccc([N+](=O)[O-])cc1`, in data set [1], the “delta Log P” value is given as 0.9. In addition, the results for the logP in data set [2] and in data set [3] were 0.55 and -0.35, respectively.

For the compound `O=C1OCCN1S(=O)(=O)Nc1ccc(Cl)cc1`, the “delta Log P” value in data set [1] was determined as 0.8. For the same compound, the logP in data set [2] is 1.26; in data set [3] it was 0.46.

By logP is commonly meant the decadic logarithm of the partition coefficient of the neutral form, usually between octanol and water. Read a high logP as a more lipophilic compound.
